Activity calls are given as the source filed them. No rule for the calls is given here.
System: CCRIS mutagenicity, Ames/micronucleus/aberration tests
Assay: CCRIS mutagenicity studies
[1] = Test System: AMES SALMONELLA TYPHIMURIUM, Strain/Indicator: TA100, Metabolic Activation: NONE, Method: STANDARD PLATE

c1cnc2c(c1)CCC1OC21 (stereo not given) was tested, and the mutagenic call [1] was “inactive; negative” and the mutagenic call (Test System: AMES SALMONELLA TYPHIMURIUM, Strain/Indicator: TA100, Metabolic Activation: RAT, LIVER, S-9, AROCLOR 1254 (10 OR 20%), Method: STANDARD PLATE) was “inactive; negative”.
With CC(=O)OC(C(C)=O)N(C)N=O (stereo not given) the mutagenic call (Test System: AMES SALMONELLA TYPHIMURIUM, Strain/Indicator: TA1535, Metabolic Activation: NONE, Method: PREINCUBATION) was “active; positive”.
With CN(C)c1ccc(N=Nc2ccccc2C(=O)O)cc1 the mutagenic call (Test System: AMES SALMONELLA TYPHIMURIUM, Strain/Indicator: TA98, Metabolic Activation: RAT, LIVER, S-9, POLYCHLORINATED BIPHENYLS, Method: PREINCUBATION) was “active; positive” and the mutagenic call (Test System: AMES SALMONELLA TYPHIMURIUM, Strain/Indicator: TA100, Metabolic Activation: RAT, LIVER, S-9, POLYCHLORINATED BIPHENYLS, Method: PREINCUBATION) was “inactive; negative”.
IC(I)I was tested, and the mutagenic call (End Point: IN VITRO CHROMOSOMAL ABERRATIONS, Test System: SYRIAN HAMSTER EMBRYO (SHE) CELLS, Metabolic Activation: NONE) was “inactive; negative; toxicity at 160 and 240 um”, the mutagenic call (End Point: IN VITRO CHROMOSOMAL ABERRATIONS, Test System: SYRIAN HAMSTER EMBRYO (SHE) CELLS, Metabolic Activation: RAT, LIVER, S-9) was “inactive; negative” and the mutagenic call (End Point: In vitro chromosomal aberrations, Test System: D824 human dental pulp cells, Metabolic Activation: None) was “active; positive (structural changes and ploidy)”.
For Cc1cccn2c1nc1ccc(N)nc12, the mutagenic call (Test System: AMES SALMONELLA TYPHIMURIUM, Strain/Indicator: TA98, Metabolic Activation: MOUSE, LIVER, MICROSOMES, TCDD, Method: STANDARD PLATE) was “active; positive”, the mutagenic call (Test System: AMES SALMONELLA TYPHIMURIUM, Strain/Indicator: TA98, Metabolic Activation: MOUSE, LIVER, MICROSOMES, Method: STANDARD PLATE) was “active; positive” and the mutagenic call (Test System: AMES SALMONELLA TYPHIMURIUM, Strain/Indicator: TA98, Metabolic Activation: RAT LIVER, CYTOSOL, AROCLOR 1254, Method: STANDARD PLATE) was “inactive; negative”. For the same compound, the mutagenic call (Test System: AMES SALMONELLA TYPHIMURIUM, Strain/Indicator: TA98, Metabolic Activation: RAT LIVER, MICROSOMES, AROCLOR 1254, Method: STANDARD PLATE) was “active; positive”, the mutagenic call (Test System: AMES SALMONELLA TYPHIMURIUM, Strain/Indicator: TA98, Metabolic Activation: RAT, LIVER, MICROSOMES, 1-METHYLCHRYSENE, Method: PREINCUBATION) was “active; positive” and the mutagenic call (Test System: AMES SALMONELLA TYPHIMURIUM, Strain/Indicator: TA98, Metabolic Activation: RAT, LIVER, MICROSOMES, 2-METHYLCHRYSENE, Method: PREINCUBATION) was “active; positive”. The mutagenic call (Test System: AMES SALMONELLA TYPHIMURIUM, Strain/Indicator: TA98, Metabolic Activation: RAT, LIVER, MICROSOMES, 3-METHYLCHRYSENE, Method: PREINCUBATION) was “active; positive”, the mutagenic call (Test System: AMES SALMONELLA TYPHIMURIUM, Strain/Indicator: TA98, Metabolic Activation: RAT, LIVER, MICROSOMES, 4-METHYLCHRYSENE, Method: PREINCUBATION) was “active; positive” and the mutagenic call (Test System: AMES SALMONELLA TYPHIMURIUM, Strain/Indicator: TA98, Metabolic Activation: RAT, LIVER, MICROSOMES, 5-METHYLCHRYSENE, Method: PREINCUBATION) was “active; positive”. For the same compound, the mutagenic call (Test System: AMES SALMONELLA TYPHIMURIUM, Strain/Indicator: TA98, Metabolic Activation: RAT, LIVER, MICROSOMES, 6-AMINOCHRYSENE, Method: PREINCUBATION) was “active; positive”, the mutagenic call (Test System: AMES SALMONELLA TYPHIMURIUM, Strain/Indicator: TA98, Metabolic Activation: RAT, LIVER, MICROSOMES, 6-METHYLCHRYSENE, Method: PREINCUBATION) was “active; positive” and the mutagenic call (Test System: AMES SALMONELLA TYPHIMURIUM, Strain/Indicator: TA98, Metabolic Activation: RAT, LIVER, MICROSOMES, BENZO[B]CHRYSENE, Method: PREINCUBATION) was “active; positive”. For the same compound, the mutagenic call (Test System: AMES SALMONELLA TYPHIMURIUM, Strain/Indicator: TA98, Metabolic Activation: RAT, LIVER, MICROSOMES, BENZO[C]CHRYSENE, Method: PREINCUBATION) was “active; positive”, the mutagenic call (Test System: AMES SALMONELLA TYPHIMURIUM, Strain/Indicator: TA98, Metabolic Activation: RAT, LIVER, S-9, AROCLOR 1254, Method: PREINCUBATION) was “active; positive” and the mutagenic call (Test System: AMES SALMONELLA TYPHIMURIUM, Strain/Indicator: TA100, Metabolic Activation: RAT, LIVER, S-9, AROCLOR 1254, Method: PREINCUBATION) was “active; positive”. For the same compound, the mutagenic call (Test System: AMES SALMONELLA TYPHIMURIUM, Strain/Indicator: TA1538, Metabolic Activation: RAT, LIVER, MICROSOMES, 2-ACETYLAMINOFLUORENE, Method: STANDARD PLATE) was “active; positive”, the mutagenic call (Test System: AMES SALMONELLA TYPHIMURIUM, Strain/Indicator: TA1538, Metabolic Activation: RAT, LIVER, MICROSOMES, 4-ACETYLAMINOFLUORENE, Method: STANDARD PLATE) was “active; positive” and the mutagenic call (Test System: AMES SALMONELLA TYPHIMURIUM, Strain/Indicator: TA1538, Metabolic Activation: RAT, LIVER, MICROSOMES, Method: STANDARD PLATE) was “active; positive”. The mutagenic call (Test System: AMES SALMONELLA TYPHIMURIUM, Strain/Indicator: YG1012, Metabolic Activation: RAT, LIVER, S-9, PHENOBARBITAL AND 5,6-BENZOFLAVONE, Method: PREINCUBATION) was “active; positive”, the mutagenic call (Test System: AMES SALMONELLA TYPHIMURIUM, Strain/Indicator: YG1019, Metabolic Activation: RAT LIVER S-9, AROCLOR, Method: PREINCUBATION) was “active; positive” and the mutagenic call (Test System: AMES SALMONELLA TYPHIMURIUM, Strain/Indicator: YG1019, Metabolic Activation: RAT, LIVER, S-9, PHENOBARBITAL AND 5,6-BENZOFLAVONE, Method: PREINCUBATION) was “active; positive”. The mutagenic call (Test System: AMES SALMONELLA TYPHIMURIUM, Strain/Indicator: YG1020, Metabolic Activation: RAT, LIVER, S-9, PHENOBARBITAL AND 5,6-BENZOFLAVONE, Method: PREINCUBATION) was “active; positive”, the mutagenic call (Test System: AMES SALMONELLA TYPHIMURIUM, Strain/Indicator: YG1024, Metabolic Activation: RAT, LIVER, S-9, PHENOBARBITAL AND 5,6-BENZOFLAVONE, Method: PREINCUBATION) was “active; positive” and the mutagenic call (Test System: AMES SALMONELLA TYPHIMURIUM, Strain/Indicator: YG1025, Metabolic Activation: RAT, LIVER, S-9, PHENOBARBITAL AND 5,6-BENZOFLAVONE, Method: PREINCUBATION) was “active; positive”. The mutagenic call (Test System: AMES SALMONELLA TYPHIMURIUM, Strain/Indicator: YG1029, Metabolic Activation: RAT, LIVER, S-9, PHENOBARBITAL AND 5,6-BENZOFLAVONE, Method: PREINCUBATION) was “active; positive”, the mutagenic call (Test System: UDS HUMAN HEPATOCYTES, Strain/Indicator: THY INCORP, Metabolic Activation: NONE, Method: AUTORADIOGRAPHY) was “active; positive” and the mutagenic call (Test System: UDS MOUSE HEPATOCYTES, Strain/Indicator: THY INCORP, Metabolic Activation: NONE, Method: AUTORADIOGRAPHY) was “active; positive”. For the same compound, the mutagenic call (Test System: UDS RAT HEPATOCYTES, Strain/Indicator: THY INCORP, Metabolic Activation: NONE, Method: AUTORADIOGRAPHY) was “inactive; negative”.
For COc1ccc(/C(=C/C(=O)N2CCOCC2)c2ccc(F)cc2)cc1OC, the mutagenic call (End Point: IN VITRO CHROMOSOMAL ABERRATIONS, Test System: CHINESE HAMSTER LUNG (CHL) CELLS, Metabolic Activation: NONE) was “inactive; negative” and the mutagenic call (End Point: IN VITRO CHROMOSOMAL ABERRATIONS, Test System: CHINESE HAMSTER LUNG (CHL) CELLS, Metabolic Activation: S-9) was “active; positive (structural changes)”.
With Cc1ccc2c(ccc3[nH]c4ccc5ccccc5c4c32)c1 the mutagenic call (Test System: AMES SALMONELLA TYPHIMURIUM, Strain/Indicator: TA100, Metabolic Activation: RAT, LIVER, S-9, AROCLOR 1254, Method: STANDARD PLATE) was “active; positive”.
N#CCCC(=O)/C=C/c1ccc(C(=O)O)cc1 was tested, and the mutagenic call (Test System: AMES SALMONELLA TYPHIMURIUM, Strain/Indicator: TA98, Metabolic Activation: NONE, Method: PREINCUBATION) was “inactive; negative”, the mutagenic call (Test System: AMES SALMONELLA TYPHIMURIUM, Strain/Indicator: TA98, Metabolic Activation: RAT, LIVER, S-9, PCB, Method: PREINCUBATION) was “inactive; negative” and the mutagenic call (Test System: AMES SALMONELLA TYPHIMURIUM, Strain/Indicator: TA100, Metabolic Activation: NONE, Method: PREINCUBATION) was “inactive; negative”. For the same compound, the mutagenic call (Test System: AMES SALMONELLA TYPHIMURIUM, Strain/Indicator: TA100, Metabolic Activation: RAT, LIVER, S-9, PCB, Method: PREINCUBATION) was “inactive; negative”.
In the case of C#CCOS(=O)(=O)c1ccc(C)cc1, the mutagenic call [1] is reported as “inactive; negative” and the mutagenic call (Test System: AMES SALMONELLA TYPHIMURIUM, Strain/Indicator: TA100, Metabolic Activation: RAT, LIVER, S-9, Method: STANDARD PLATE) is reported as “active; positive”.

Reference: PubChem BioAssay AID1259407 (Chemical Carcinogenesis Research Information System (CCRIS), 2018)
